{
  "source": "patent US6482413B1",
  "about": "“Vitamin B12 —biodegradable micro particulate conjugate carrier systems for peroral delivery of drugs, therapeutic peptides/proteins and vaccines” (Council of Scientific and Industrial Research, priority 2001, dated 2002)",
  "key": {"[1]": {"test_system": "VB12 transport system", "conditions": "oral uptake capacity; cited from earlier work"}, "[2]": {"test_system": "intestinal enzymes", "conditions": "FIG. 3; same experimental conditions for free and entrapped insulin"}, "[3]": {"test_system": "Streptozotocin induced diabetic rats", "test": "Antidiabetic activity of orally administered insulin loaded delivery systems", "assay_type": "in vivo, rat", "experimental": "The pharmacological availability was assessed by the above results.\nVarious insulin loaded drug delivery systems prepared were tested for antidiabetic activity in Streptozotocin induced diabetic rats and the results are briefed in summary section. These insulin drug delivery systems are orally administered to diabetic rats (n=number of animals). At various time intervals after feeding the rats were bled and their blood glucose levels determined."}, "[4]": {"target": "IF (Homo sapiens, UniProt P27352)", "sequence (P27352 19-417)": "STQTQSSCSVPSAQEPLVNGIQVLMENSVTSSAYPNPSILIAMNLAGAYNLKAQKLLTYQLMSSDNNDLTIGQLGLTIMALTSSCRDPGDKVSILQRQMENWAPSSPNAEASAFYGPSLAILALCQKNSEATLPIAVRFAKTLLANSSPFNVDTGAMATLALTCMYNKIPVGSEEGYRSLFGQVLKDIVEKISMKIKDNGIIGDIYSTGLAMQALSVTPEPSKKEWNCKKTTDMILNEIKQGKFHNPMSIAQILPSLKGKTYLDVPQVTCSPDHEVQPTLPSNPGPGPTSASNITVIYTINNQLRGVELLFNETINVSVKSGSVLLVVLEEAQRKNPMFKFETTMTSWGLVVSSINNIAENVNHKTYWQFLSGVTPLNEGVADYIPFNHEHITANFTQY", "conditions": "among b, d and e monocarboxylate isomers; cited from earlier work"}},
  "data": [
    {"substance": "Vitamin B12 [VB12]", "values": [
      {"measurement": "uptake of VB12", "setting": "[1]", "value": 1, "unit": "nmol/dose"}
    ]},
    {"substance": "insulin", "values": [
      {"measurement": "Degradation of insulin by digestive enzymes", "setting": "[2]", "value": "completely degraded"},
      {"measurement": "activity at 3rd, 4th, 5th and 6th hours", "setting": "[3]", "value": "no activity"}
    ]},
    {"substance": "‘e’ monocarboxylate of VB12 [Conjugate 1b]", "values": [
      {"measurement": "affinity for IF", "setting": "[4]", "value": "highest affinity"}
    ]}
  ]
}
